Laboratory results taken from patent publication US20140329766A1, “Prophylactic Compositions for Management of Microbial Infections in Patients with Brain Injury” (UTI LIMITED PARTNERSHIP, priority 2011, published 2014).

Columns and labels:
hepatic iNKT cells = assay: Spinning disk confocal intravital microscopy of the liver: crawling behaviour of GFP+ (iNKT) cells; format: in vivo, mice; conditions: post-ischemic Cxcr6gfp/+ mice 24 h after MCAO; for iNKT cell phenotype (cessation of crawling) induced by MCAO: propranolol 30 mg/kg at 4 and 8 h after MCAO, 6-OHDA 250 mg/kg i.p. 3 days prior (FIGS. 32-34)
Experimental: Murine liver intravital microscopy was performed as taught by Wong et al. (1997, A minimal role for selectins in the recruitment of leukocytes into the inflamed liver microvasculature. J. Clin. Invest. 99: 2782). Briefly, the tail vein of the anesthetized mice was cannulated to administer fluorescently labeled antibodies and/or additional anesthetic as required. Body temperature was maintained at 37° C. using an infrared heat lamp. Mice were placed in a right lateral position on an adjustable microscope stage. A lateral abdominal incision along the costal margin to the midaxillary line was made to exteriorize the liver, and all exposed tissues were moistened with saline-soaked gauze to prevent dehydration.
Cells were tracked using ImageJ software version 1.45 (NIH at http://rsb.info.nih.gov/ij/). Time-lapse videos exported from Volocity were imported as .mov file, and then converted to 8-bit grayscale. Fluorescent cells were adjusted using threshold control, and noise particles less than 2.0 pixels were removed by filter. Movement of cells was measured using manual tracking, and was calculated for each track using ImageJ output spreadsheets. The cell velocity was expressed in distance (μm) per time (min). 30-40 tracks from 10 mins videos of each animal in each experimental group were analyzed.
Excised livers were prepared for in vivo microscopic observation. Briefly, the liver was placed on the pedestal of an inverted microscope and the liver surface was then covered with a small piece of saline-soaked KimWipe to hold the organ in position. The liver microvasculature was visualized using a spinning-disk confocal microscopy and images were acquired with an Olympus IX81 inverted microscope using a ×10/0.40 UplanFL N objective. The microscope was equipped with a confocal light path (WaveFx, Quorum, Guelph, ON, CA) based on a modified Yokogawa CSU-10 head (Yokogawa Electric Corporation, Tokyo, Japan). Cxcr6^gfp/+ mice were used to visualize hepatic iNKT cells. Laser excitation wavelengths (Cobolt, Stockholm, Sweden) were used in rapid succession and visualized with the appropriate long-pass filters (Semrock, Rochester, N.Y.). Typical exposure time for each excitation wavelength was 300 milli-seconds. A 512×512 pixel back-thinned electron-multiplying charge-coupled device camera (C9100-13, Hamamatsu, Bridgewater, N.J.) was used for fluorescence detection. Volocity Acquisition software (Improvision) was used to drive the confocal microscope. […] Behaviors of iNKT cells in the hepatic microvasculature were assessed.
Wildtype mice underwent the MCAO procedure as previously described in Example 1. […] The crawling behaviours of crawling GFP+ cells in livers from sham-operated control mice and post-ischemic mice were observed and quantified using the methods disclosed in Example 2.

[1] = format: in vivo; conditions: post-ischemic Cxcr6gfp/+ mice (FIG. 37)
Experimental: Body temperature was maintained at 37° C. using a heating pad and temperature regulator with rectal probe. Mice were randomly divided into 2 groups: (i) sham-operated, and (ii) MCAO-operated. All surgical instruments were sterilized before the surgery. Before any incision, the area was swabbed with ethanol. To induce MCAO, a 10-mm incision was made on the right-hand side of the neck. Then, the common carotid artery, external carotid artery, and internal carotid artery were dissected free. The external carotid artery was further dissected distally, then coagulated and cut to serve as a stump. After applying temporary clamps at the common carotid artery and internal carotid artery, a monofilament with a silicon coating diameter of 0.21-0.23 mm (Doccol Corporation, Redlands, Calif., USA) was inserted into the stump of the external carotid artery. The monofilament then advanced a defined distance (12 mm) so that the distal end of the monofilament came to rest across the origin of the MCA. The stump of external carotid artery was tied off. The wound on the neck of the mouse was sutured and the mouse was then transferred onto a heat pad to maintain its body temperature at 37° C. After 30 mins of occlusion, the monofilament was withdrawn to allow reperfusion to occur. The animal then recovered from the anaesthesia. […]

[2] = Brain infarct size after MCAO; format: in vivo, mice; conditions: systemic propranolol or 6-OHDA (FIG. 36)
post-stroke infections = assay: Bacteriological analysis (CFU) of blood, lungs, liver and spleen after MCAO; format: in vivo, mice; conditions: for bacterial infections at 24 h after MCAO: wild-type mice receiving propranolol or 6-OHDA (FIGS. 44A-44D)
Experimental: Mice underwent the mid-cerebral artery occlusion (MCAO) model of cerebral ischemia-reperfusion injury as previously described (Connolly, Jr. et al., 1996; Wong et al., 2008). Male mice of 8-12 weeks old were anesthetized by intraperitoneal injection of a mixture of 10 mg/kg xylazine hydrochloride (MTC Pharmaceuticals, Cambridge, ON) and 200 mg/kg ketamine hydrochloride (Rogar/STB, London, ON). Body temperature was maintained at 37° C. using a heating pad and temperature regulator with rectal probe. Mice were randomly divided into 2 groups: (i) sham-operated, and (ii) MCAO-operated. All surgical instruments were sterilized before the surgery. Before any incision, the area was swabbed with ethanol. To induce MCAO, a 10-mm incision was made on the right-hand side of the neck. Then, the common carotid artery, external carotid artery, and internal carotid artery were dissected free. The external carotid artery was further dissected distally, then coagulated and cut to serve as a stump. After applying temporary clamps at the common carotid artery and internal carotid artery, a monofilament with a silicon coating diameter of 0.21-0.23 mm (Doccol Corporation, Redlands, Calif., USA) was inserted into the stump of the external carotid artery. The monofilament then advanced a defined distance (12 mm) so that the distal end of the monofilament came to rest across the origin of the MCA. The stump of external carotid artery was tied off. The wound on the neck of the mouse was sutured and the mouse was then transferred onto a heat pad to maintain its body temperature at 37° C. After 30 mins of occlusion, the monofilament was withdrawn to allow reperfusion to occur. The animal then recovered from the anaesthesia. Rehydration of the mice was performed every 4 h with a subcutaneous injection of electrolytes and glucose. Food pellets softened with water were placed in the cage after surgery as the mice recovered, and access to water was provided. Sham-operated animals were subjected to the initial anaesthetic and neck incision only. The animals were then allowed to recover from anaesthetic. All animals were put onto a 37° C. heat pad, post-surgery, to recover from anaesthesia until euthanized.
The anaesthetized mice from Example 1 were washed with 70% ethanol under sterile conditions. Blood was collected by cardiac puncture. The lungs, liver and spleen were removed after thoracotomy and homogenized. For determination of colony forming units (CFU), 10 μl of tissue homogenate or blood was serially diluted, plated onto brain heart infusion (BHI) agar plates supplemented with 5% sheep blood (Daylnn Biologicals, Alberta, Canada), incubated at 37° C. for 18 h, and bacterial colonies were counted.
The anaesthetized mice from Example 7 were washed with 70% ethanol under sterile conditions. Blood was collected by cardiac puncture. The lungs, liver and spleen were removed after thoracotomy and homogenized. For determination of colony forming units (CFU), 10 μl of tissue homogenate or blood was serially diluted, plated onto brain heart infusion (BHI) agar plates supplemented with 5% sheep blood (Daylnn Biologicals, Alberta, Canada), incubated at 37° C. for 18 h, and bacterial colonies were counted.

iNKT cells [3] = assay: Localized noradrenalin superfusion on the liver of Cxcr6gfp/+ mice; format: in vivo
Experimental: Alexa Fluor 647-conjugated rat anti-mouse PECAM-1 (clone 390; 1 μl) purchased from eBioscience (San Diego, Calif., USA) was mixed with the noradrenalin (5 μg; Sigma) to enable visualization of the epicentre of noradrenalin superfusion. Using intravital spinning-disk confocal microscopy, the behavior of iNKT cells was visualized and tracked in the epicentre of, and distant from the localized noradrenalin in the livers of Cxcr6^gfp/+ mice.

iNKT cells [4] = assay: In vitro noradrenalin activation of isolated iNKT cells; format: cell-based, mice
Experimental: After gentle agitation at 37° C. for 30 min, the concentrate was passed through a 40-μm nylon filter and washed twice with ice-cold PBS (pH 7.4) and centrifuged at 400×g for 10 min. Lymphocytes were purified on a 44%/70% Percoll gradient and were negatively selected with anti-Gr-1 (RB6-8C5; eBioscience), anti-F4/80 (BM8; eBioscience), anti-CD19 (1D3; eBioscience), and anti-CD8a (53-6.7; eBioscience) microbeads and MiniMACS column (Miltenyi Biotech) to remove neutrophils, macrophages, B cells, and CD8+ cells, respectively. A pure iNKT cell population consisting of TCRf3+ and GFP+ cells were sorted. Purity of isolated iNKT cells was >95%. iNKT cells were seeded at 5×10^5 cells into plasma-coated 6 cm clear flat glass bottom dishes and allowed to settle in DMEM containing 10% FCS for 1 h. To examine noradrenalin activation of iNKT cells in vitro, iNKT cells were either pretreated with 400 μM propranolol and then treated with 200 μM noradrenalin or the iNKT cells were subjected to 200 μM noradrenalin alone. The behavior of iNKT cells was visualized and recorded with FluoView FV1000 confocal fluorescence microscope (Olympus). The recorded images were randomized and analyzed by three blinded investigators.

[5] = test system: intracellular IFNγ and IL-10 production; assay: Intracellular cytokine analysis by flow cytometry; format: in vivo; conditions: post-ischemic wild-type mice treated with propranolol (FIG. 48)
Experimental: For intracellular cytokine analysis, liver single cell suspensions from sham-operated and post-ischemic Cxcr6^gfp/+ mice were stained with PerCP-conjugated anti-CD69, washed with cold FWB, resuspended in Cytofix/Cytoperm (BD Bioscience) for 30 min on ice. Samples were washed in Perm/Wash (BD Bioscience) and then stained with Alexa Fluor 450-conjugated anti-IFNγ (XMG1.2, eBioscience) and PE-conjugated anti-IL-4 (11B11, BD Pharmingen) or PE-conjugated anti-IL-10 (JESS-16E3, eBioscience).

[6] = 5 μg, liver of Cxcr6gfp/+ mice (FIGS. 38-40)

## apyrase
Hepatic iNKT cells; treatment just prior to MCAO (FIGS. 29, 30)
  iNKT cell arrest in response to MCAO: no effect

## NCCc1cc(O)c(O)cc1O [Formula 6-OHDA, 6-hydroxydopamine]
[1]
  Mortality at 24 h of reperfusion: 50%
[2]
  infarct size in post-ischemic mice: did not alter
Hepatic iNKT cells
  iNKT cell phenotype (cessation of crawling) induced by MCAO: completely inhibited
post-stroke infections
  bacterial infections at 24 h after MCAO: significantly reduced

## NC[C@H](O)c1ccc(O)c(O)c1 [noradrenaline]
iNKT cells [3]; 5 μg (FIGS. 38-40)
  crawling behavior of iNKT cells in an area of liver distant from the superfusion: did not alter
iNKT cells [3]; [6]
  crawling iNKT cells in the epicenter of noradrenaline administration: Significantly fewer iNKT cells crawled
  pirouetting iNKT cells in the epicenter of noradrenaline administration: more cells adopted a pirouetting phenotype
iNKT cells [4]; 200 μM noradrenalin alone (FIG. 41)
  iNKT cell morphology in vitro: developed a pseudopod-protruding phenotype

## CC(C)NCC(O)COc1cccc2ccccc12 (stereo not shown) [propranolol]
[5]
  intracellular IL-10 versus IFN-γ production: reversed the preference for intracellular IL-10 production back to an intracellular IFN-γ dominant production
[2]
  infarct size in post-ischemic mice: did not alter
Hepatic iNKT cells
  iNKT cell phenotype (cessation of crawling) induced by MCAO: reversed
iNKT cells [4]; pretreatment 400 μM propranolol, then 200 μM noradrenalin (FIG. 42)
  noradrenaline-induced behavioral change of iNKT cells in vitro: inhibited
post-stroke infections; post-ischemic Cd1d-/- mice (FIG. 46)
  protection from infection (bacterial loads in peripheral blood and lungs): no protection
post-stroke infections
  bacterial infections at 24 h after MCAO: significantly reduced

B1: recombinant IL-10: Recombinant IL-10 (Cedarlane), a TH2-type cytokine (protein, UniProt P18893 19-178, looked up)
Interleukin-10: SRGQYSREDNNCTHFPVGQSHMLLELRTAFSQVKTFFQTKDQLDNILLTDSLMQDFKGYLGCQALSEMIQFYLVEVMPQAEKHGPEIKEHLNSLGEKLKTLRMRLRRCHRFLPCENKSKAVEQVKSDFNKLQDQGVYKAMNEFDIFINCIEAYMMIKMKS
post-stroke infections; wild-type mice pretreated i.v. 1 h prior to MCAO, 1 μg/mouse (FIG. 22)
  stroke-induced lung infections (bacterial load in the lungs): increased
